From patent publication US20220193062A1 (DENOVO BIOPHARMA LLC, priority 2018, published 2022)
Read-outs that look alike come from different tables or passages of the source.

Tests used:
[1] = molecular target: T1, bone marrow tyrosine kinase on chromosome X (BMX) (Homo sapiens, UniProt P51813); details: targets Cys496 in the BMX ATP binding domain; cited from earlier work
T1 sequence (P51813 1-675): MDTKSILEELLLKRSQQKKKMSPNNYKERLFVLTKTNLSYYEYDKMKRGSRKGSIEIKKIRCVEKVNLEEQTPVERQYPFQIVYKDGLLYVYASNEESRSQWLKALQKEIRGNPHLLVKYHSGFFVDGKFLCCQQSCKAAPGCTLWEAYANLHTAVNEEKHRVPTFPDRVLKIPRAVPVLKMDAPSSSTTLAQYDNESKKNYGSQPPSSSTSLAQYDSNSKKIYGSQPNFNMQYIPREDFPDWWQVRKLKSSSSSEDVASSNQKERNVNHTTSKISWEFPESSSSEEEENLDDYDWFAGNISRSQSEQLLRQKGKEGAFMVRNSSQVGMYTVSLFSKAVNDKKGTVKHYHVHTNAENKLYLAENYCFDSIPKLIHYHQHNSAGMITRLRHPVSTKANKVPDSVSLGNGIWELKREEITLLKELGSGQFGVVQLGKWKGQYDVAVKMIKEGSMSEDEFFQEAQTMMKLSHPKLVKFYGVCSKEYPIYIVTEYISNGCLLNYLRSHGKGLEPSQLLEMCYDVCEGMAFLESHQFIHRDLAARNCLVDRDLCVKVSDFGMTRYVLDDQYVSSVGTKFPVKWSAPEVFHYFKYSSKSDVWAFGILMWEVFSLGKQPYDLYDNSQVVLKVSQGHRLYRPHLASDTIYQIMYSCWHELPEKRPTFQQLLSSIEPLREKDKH

[2] = test system: signals downstream of BCR in HBL-1, TMD-8, and SU-DHL-6 cells; test: Western blot of downstream BCR signalling; type: cell-based
[3] = test system: p-BTK in HBL-1 and TMD8 cells; test: Western blot of p-BTK after enzastaurin; type: cell-based; details: 2 hours treatment
HBL-1 cells [4] = test: Whole-transcriptome RNA-seq; type: cell-based; details: HBL-1, 24 hours
DLBCL patients [5] = details: Phase I/II studies, cited from earlier work
SU-DHL-5 = test: Cell proliferation assay (Cell Titer AQueous One Solution), Example 2; type: cell-based; details: Homo sapiens; SU-DHL-5, 72 h, 0.014 μM-10 μM
high-risk DLBCL patients = details: enzastaurin alone, after remission of B cell lymphoma; cited from earlier work
[6] = test system: ABC and GCB types of DLBCL cell lines; test: Cell Titer-Glo cell viability, enzastaurin alone, 9 DLBCL cell lines; type: cell-based; details: 72 h; read-out: 50% inhibitory concentration (IC50) of cell proliferation
HBL-1 cells [7] = test: Transwell invasion assay (Matrigel); type: cell-based; details: HBL-1, 2 micromolar enzastaurin and/or 0.02 micromolar ibrutinib
[8] = test system: ABC-DLBCL HBL-1 cells engrafted in NPG mice; test: HBL-1 lymphoma xenograft model; type: in vivo; details: for tumour weight: end of the experiment (day 39), vehicle 1321.50±168.84 mg; for reduction of tumor volume: enzastaurin 50 mg/kg BID oral, ibrutinib 12 mg/kg QD oral, 21 days
HBL-1 cells [9] = test: Transwell migration assay; type: cell-based; details: HBL-1, 2 micromolar enzastaurin and/or 0.02 micromolar ibrutinib
DLBCL patients [10] = details: DLBCL trials of enzastaurin; cited from earlier work
HBL-1 cells [11] = test: Apoptosis assay, annexin V flow cytometry; type: cell-based; details: HBL-1, 48 h
SU-DHL-6 = test: Cell proliferation assay (Cell Titer AQueous One Solution), Example 2; type: cell-based; details: Homo sapiens; SU-DHL-6, 72 h, 0.014 μM-10 μM
[12] = test system: PARP, XIAP, MCL-1, caspase-3, Bcl-2 in HBL-1 cells; test: Western blot of proteins associated with apoptosis; type: cell-based; details: HBL-1, 48 hours
BTK [13] = molecular target: BTK (Rattus norvegicus, UniProt Q5S255); details: read-out: in vivo IC50; rats; cited from earlier work
relapsed DLBCL patients = details: cited from earlier work
[14] = test system: Bmx, CSK, FGR, BRK, and HCK; details: cited from earlier work
[15] = test system: EGFR, Yes, ErbB2, and JAK3; details: cited from earlier work
BTK [16] = molecular target: BTK (Homo sapiens, UniProt Q06187); details: cited from earlier work
[17] = molecular target: T2, interleukin-2-inducible T-cell kinase (ITK) (Homo sapiens, UniProt Q08881); details: cited from earlier work
T2 sequence (Q08881 1-620): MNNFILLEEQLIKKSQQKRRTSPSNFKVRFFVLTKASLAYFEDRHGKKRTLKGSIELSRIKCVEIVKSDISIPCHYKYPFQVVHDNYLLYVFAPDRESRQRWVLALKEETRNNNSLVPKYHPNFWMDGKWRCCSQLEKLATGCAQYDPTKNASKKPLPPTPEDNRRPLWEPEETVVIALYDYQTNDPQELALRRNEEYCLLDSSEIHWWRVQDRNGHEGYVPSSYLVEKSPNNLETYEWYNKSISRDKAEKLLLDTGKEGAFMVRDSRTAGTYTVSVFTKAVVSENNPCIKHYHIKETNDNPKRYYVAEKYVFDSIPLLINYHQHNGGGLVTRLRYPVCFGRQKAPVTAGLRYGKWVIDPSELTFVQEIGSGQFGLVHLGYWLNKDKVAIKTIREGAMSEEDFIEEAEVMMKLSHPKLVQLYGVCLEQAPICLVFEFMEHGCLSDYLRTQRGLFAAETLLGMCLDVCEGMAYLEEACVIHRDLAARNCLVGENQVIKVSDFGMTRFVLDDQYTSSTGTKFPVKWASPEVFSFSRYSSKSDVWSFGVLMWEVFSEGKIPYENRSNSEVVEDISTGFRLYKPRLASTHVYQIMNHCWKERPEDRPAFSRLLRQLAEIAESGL

Plx1 = Plx1 (Xenopus laevis, UniProt P70032); details: cited from earlier work
PLK3 = PLK3 (Homo sapiens, UniProt Q9H4B4); details: cited from earlier work
Chain of PLK3 (Q9H4B4 whole entry, species assumed): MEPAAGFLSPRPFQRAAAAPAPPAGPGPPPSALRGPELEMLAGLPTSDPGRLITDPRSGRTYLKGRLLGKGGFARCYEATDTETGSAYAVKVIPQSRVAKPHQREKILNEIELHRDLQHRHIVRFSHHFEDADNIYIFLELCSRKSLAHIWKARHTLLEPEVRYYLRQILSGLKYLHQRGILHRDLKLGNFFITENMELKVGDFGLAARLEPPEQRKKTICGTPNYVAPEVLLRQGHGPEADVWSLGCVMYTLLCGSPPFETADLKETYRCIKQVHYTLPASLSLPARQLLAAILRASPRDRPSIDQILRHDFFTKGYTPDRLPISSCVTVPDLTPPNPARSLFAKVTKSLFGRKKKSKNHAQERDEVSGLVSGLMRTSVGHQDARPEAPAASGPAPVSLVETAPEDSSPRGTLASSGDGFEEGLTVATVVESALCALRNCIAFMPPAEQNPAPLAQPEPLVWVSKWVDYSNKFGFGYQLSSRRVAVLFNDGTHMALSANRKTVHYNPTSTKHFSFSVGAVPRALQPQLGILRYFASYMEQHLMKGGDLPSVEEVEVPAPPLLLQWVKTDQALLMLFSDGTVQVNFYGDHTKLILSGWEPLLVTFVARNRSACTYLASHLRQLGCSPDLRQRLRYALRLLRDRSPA

Chain of Plx1 (P70032 whole entry): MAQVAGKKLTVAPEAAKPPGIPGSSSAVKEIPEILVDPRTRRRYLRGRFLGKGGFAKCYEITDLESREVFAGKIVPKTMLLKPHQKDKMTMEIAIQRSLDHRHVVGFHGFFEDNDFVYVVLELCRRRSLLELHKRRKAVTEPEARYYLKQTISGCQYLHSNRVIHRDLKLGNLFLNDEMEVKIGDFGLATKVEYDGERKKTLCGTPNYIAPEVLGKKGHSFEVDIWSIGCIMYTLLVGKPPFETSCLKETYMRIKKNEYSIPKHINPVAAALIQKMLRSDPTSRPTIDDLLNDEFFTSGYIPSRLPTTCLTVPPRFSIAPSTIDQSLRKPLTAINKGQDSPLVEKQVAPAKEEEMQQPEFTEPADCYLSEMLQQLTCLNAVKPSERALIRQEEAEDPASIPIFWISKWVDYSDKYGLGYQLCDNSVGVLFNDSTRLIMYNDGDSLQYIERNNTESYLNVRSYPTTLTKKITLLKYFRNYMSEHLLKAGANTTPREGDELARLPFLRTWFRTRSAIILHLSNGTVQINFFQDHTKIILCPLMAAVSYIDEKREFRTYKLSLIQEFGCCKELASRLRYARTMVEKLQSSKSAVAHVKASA
Chain of BTK (Homo sapiens, UniProt Q06187) (Q06187 whole entry, species assumed): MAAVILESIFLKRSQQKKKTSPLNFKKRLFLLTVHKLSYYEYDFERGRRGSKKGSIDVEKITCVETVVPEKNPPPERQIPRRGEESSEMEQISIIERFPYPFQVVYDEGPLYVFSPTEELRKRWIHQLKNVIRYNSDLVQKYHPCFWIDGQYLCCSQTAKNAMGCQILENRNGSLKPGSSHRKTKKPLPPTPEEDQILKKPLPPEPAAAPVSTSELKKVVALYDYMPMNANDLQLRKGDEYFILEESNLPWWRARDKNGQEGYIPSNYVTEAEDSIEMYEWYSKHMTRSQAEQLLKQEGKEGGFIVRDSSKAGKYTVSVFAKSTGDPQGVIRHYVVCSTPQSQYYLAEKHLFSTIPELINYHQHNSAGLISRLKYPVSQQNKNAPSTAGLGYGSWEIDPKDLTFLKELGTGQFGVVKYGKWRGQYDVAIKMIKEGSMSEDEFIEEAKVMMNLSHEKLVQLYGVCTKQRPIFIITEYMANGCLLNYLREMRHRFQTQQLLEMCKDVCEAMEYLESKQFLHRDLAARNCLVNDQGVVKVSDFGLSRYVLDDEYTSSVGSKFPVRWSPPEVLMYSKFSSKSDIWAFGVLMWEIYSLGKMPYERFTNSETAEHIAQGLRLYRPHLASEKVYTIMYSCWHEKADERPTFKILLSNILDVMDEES
Chain of BTK (Rattus norvegicus, UniProt Q5S255) (Q5S255 1-660): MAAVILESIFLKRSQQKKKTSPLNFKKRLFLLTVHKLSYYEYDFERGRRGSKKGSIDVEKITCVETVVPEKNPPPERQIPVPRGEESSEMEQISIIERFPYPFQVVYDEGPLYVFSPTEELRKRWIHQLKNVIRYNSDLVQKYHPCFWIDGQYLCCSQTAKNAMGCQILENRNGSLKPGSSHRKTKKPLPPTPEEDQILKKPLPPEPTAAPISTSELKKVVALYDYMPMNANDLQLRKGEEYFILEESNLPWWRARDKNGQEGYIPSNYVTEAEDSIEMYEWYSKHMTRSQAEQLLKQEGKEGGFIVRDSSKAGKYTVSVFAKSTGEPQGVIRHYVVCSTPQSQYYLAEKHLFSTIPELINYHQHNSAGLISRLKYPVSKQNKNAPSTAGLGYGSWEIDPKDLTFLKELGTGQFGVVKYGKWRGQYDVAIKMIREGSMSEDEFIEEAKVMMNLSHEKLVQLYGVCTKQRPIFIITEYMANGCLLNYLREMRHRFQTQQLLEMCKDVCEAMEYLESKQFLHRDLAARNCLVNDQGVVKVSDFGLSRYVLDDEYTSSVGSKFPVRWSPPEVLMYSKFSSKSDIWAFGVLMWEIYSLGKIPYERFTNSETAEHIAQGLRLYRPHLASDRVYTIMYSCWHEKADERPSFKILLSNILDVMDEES

## C=CC(=O)Nc1cc(-n2c(=O)ccc3cnc4ccc(-c5ccc(NS(C)(=O)=O)cc5)cc4c32)ccc1C [BMX-IN-1]
[1]
  IC50: 0.008 µM

## Cn1cc(C2=C(c3cn(C4CCN(Cc5ccccn5)CC4)c4ccccc34)C(=O)NC2=O)c2ccccc21 [enzastaurin]
[2]; low doses, 60 min and 120 min
  phosphorylation of glycogen synthase kinase 3β (GSK3β): clearly reduced
[2]; short-term and low-dose treatment
  p-BTK, p-ERK and p-AKT expression: increasing
[3]
  p-BTK level: significant upregulation
HBL-1 cells [4]
  downregulated genes contained in the combination treatment group: 365 genes
  share of downregulated transcripts contained in the combination treatment group: Approximately 91%
HBL-1 cells [4]; 2 micromolar enzastaurin and/or 0.02 micromolar ibrutinib, p<0.05
  transcripts significantly down: 339 transcripts
DLBCL patients [5]; 4/55 patients
  patients experiencing FFP 20˜50 months: 7%
DLBCL patients [5]; 8/55 patients
  patients with prolonged freedom from progression (FFP≥4 cycles): 15%
SU-DHL-5
  IC50: 3.6 µM
high-risk DLBCL patients
  disease-free survival (DFS): did not significantly improve
[6]
  IC50: 6.7 to 16 µM
HBL-1 cells [7]
  invasive abilities: 97.0 % of control
[8]
  tumour weight: 1151.62 ± 163.79 mg
  reduction of tumor volume: weak activity
HBL-1 cells [9]
  migration abilities: 79.0 % of control
DLBCL patients [10]
  survival of DGM1-positive over DGM1-negative patients: significantly improved survival
HBL-1 cells [11]; enzastaurin alone (concentration in FIG. 3a)
  apoptosis as measured by annexin V staining: 25.5±5.4%
SU-DHL-6
  IC50: 5.9 µM
[12]
  cleavage of PARP and caspase-3: increase the cleavage of PARP and caspase-3 slightly

## Cc1c(NC(=O)c2cc3c(s2)CCCC3)cccc1-c1cn(C)c(=O)c(Nc2ccc([C@@H]3C(=O)N(C)CCN3C)cc2)n1 [GDC-0834]
BTK [13]
  IC50: 5.6 µM

## C=CC(=O)N1CCC[C@@H](n2nc(-c3ccc(Oc4ccccc4)cc3)c3c(N)ncnc32)C1 [ibrutinib]
[2]
  phosphorylation of BTK and AKT: reduced
[2]; combination compared to each monotherapy alone
  phosphorylation of mTOR, PLCγ2, ERK and P38: mild effect
Relapsed DLBCL patients; patients with ABC-DLBCL (14/38)
  overall response rate (ORR): 37%
Relapsed DLBCL patients; patients with GCB-DLBCL (1/20)
  overall response rate (ORR): 5%
HBL-1 cells [7]
  invasive abilities: 85.0 % of control
[8]
  tumour weight: 1141.80 ± 235.57 mg
  reduction of tumor volume: weak activity
HBL-1 cells [9]
  migration abilities: 70.2 % of control
HBL-1 cells [11]; first-listed of two ibrutinib doses (FIG. 3a)
  apoptosis as measured by annexin V staining: 15.9±6.0%
HBL-1 cells [11]; second-listed of two ibrutinib doses (FIG. 3a)
  apoptosis as measured by annexin V staining: 19.0±6.7%

## C=CC(=O)N1CCC[C@@H](n2nc(-c3ccc(Oc4ccccc4)cc3)c3c(N)ncnc32)C1 (racemic) [PCI-32765]
[14]
  inhibition of Bmx, CSK, FGR, BRK, and HCK: moderate inhibition
[15]
  activity on EGFR, Yes, ErbB2, and JAK3: lower activity

## NC(=O)[C@H]1CCN(c2ncnc(N)c2F)C[C@@H]1N1CCC[C@@H](Nc2cc(Cl)cc(C(F)(F)F)c2)C1=O [SNS-062]
BTK [16]
  Kd: 0.0003 µM
[17]
  Kd: 0.0022 µM

## C/C(O)=C(\C#N)C(=O)Nc1cc(Br)ccc1Br [LFM-A13]
Plx1
  IC50: 10 µM
PLK3
  IC50: 61 µM
